Where two headings read alike, the source gives them in different places.
What was measured:
[1] = system: HEK293 cells expressing ΔCR PrP; experiment: cells; format: cell-based; set-up: Emax: dose or concentration left out as unconfirmed; details: for Emax at 1 µM / Emax: HEK293, 48 h, read-out: % RMAX: maximum rescuing effect, expressed as percentage of the effect of SM3(LD24) at the same concentration; for IC50: HEK293, read-out: IC50 (rescuing dose at 50%)
cDC2 = format: cell-based, mouse
naive HEK293 cells = experiment: Intrinsic toxicity in naive HEK293 cells (MTT); format: cell-based; details: 8-point dose-response curve, 48 h
Text: FIG. 3. Dose-response analysis of selected compounds. (A) Chemical structures of the selected molecules are shown in panel. (B) A dose-response analysis using the DBCA was employed to evaluate the anti-ΔCR PrP effects of the different molecules. The graphs show a quantification of the dose-dependent, rescuing effect of each molecule. Average values were obtained from a minimum of 3 independent experiments (n≥3), and expressed as a percentage of cell viability in untreated cells. Data were fitted to a sigmoidal function using a 4-parameter logistic (4PL) non-linear regression model, allowing the estimation of the half-maximal inhibitory concentration (IC50). (C) The intrinsic toxicity of each compound was evaluated in naive HEK293 cells, exposed to each molecule/concentration for 48 h at 37° C. Cytotoxicity was evaluated by MTT. Average values were obtained from a minimum of 3 independent experiments (n≥3), and expressed as a percentage of cell viability in untreated cells. Data were fitted to an inverse sigmoidal function using a 4PL non-linear regression model, allowing the estimation of the half-maximal toxicity dose (LD50).
The DBCA was performed as described previously^24, with minor modifications. Briefly, HEK293 cells expressing ΔCR PrP were cultured at ˜60% confluence in 24-well plates on day 1. On day 2, cells were treated with 500 μg/mL of Zeocinfor. Medium (containing fresh Zeocin and/or compound or vehicle) was replaced every 24 hr. On day 5, cell medium was removed and cells were incubated with 1 mg/mL of 3-(4,5-dimethylthiazol-2-yl)-2,5-diphenyltetrazolium bromide (MTT, Sigma Aldrich, St. Louis, MO) in PBS for 30 min at 37° C. MTT was carefully removed, and cells were re-suspended in 500 μL of DMSO. Values for each well were obtained by measuring at 570 nm, using a plate spectrophotometer (Biotek).

Fyn kinase = format: cell-based, mouse
[2] = system: primary hippocampal neurons; format: cell-based, mouse
[3] = mouse, in vivo
[4] = biological target: T1, full-length human recombinant PrPC (Homo sapiens, UniProt P04156); details: cited from earlier work
M1000 prion strain = system: M1000 prion strain; set-up: species or system mouse; details: slices treated with M1000 prion lysate
[5] = biological target: T1, full-length human recombinant PrPC; format: binding; details: 0.1-1000 μM, highest concentration 1 mM
PrPC [6] = details: HEK293 WT PrPC, 48 hours
PrPC [7] = format: cell-based, mouse; details: especially in DC2
DC2 = format: cell-based, mouse
FXR = format: cell-based, mouse
in vitro = details: rat, microsomes

Compound	Emax [1]	IC50 [1]	LD50 (lethal dose at 50%) (naive HEK293 cells)	also measured
CCC(CN(C)C)NC(=O)CN1c2ccc(C(F)(F)F)cc2-c2ccc(F)cc2S1(=O)=O (centres unmarked) [SM889, N-{1-[(dimethylamino)methyl]propyl}-2-[3-fluoro-5,5-dioxido-9-(trifluoromethyl)-6H-dibenzo[c,e][1,2]thiazin-6-yl]acetamide]				Emax at 1 µM [1]: ~50%; antigen-specific CD4+ T cell proliferation after cDC2 treatment (cDC2): suppress antigen-specific CD4+ T cell proliferation
O=C(CN1c2ccc(Br)cc2-c2ccccc2S1(=O)=O)NC1CCCCC1 [SM3, 2-(9-Bromo-5,5-dioxido-6H-dibenzo[c,e][1,2]thiazin-6-yl)-N-cyclohexylacetamide, reference compound]	100%	1100 nM	>100 µM	
O=C(CN1c2ccc(C(F)(F)F)cc2-c2ccc(F)cc2S1(=O)=O)NC1CCOCC1 [SM885, 2-[3-Fluoro-5,5-dioxido-9-(trifluoromethyl)-6H-dibenzo[c,e][1,2]thiazin-6-yl]-N-(tetrahydro-2H-pyran-4-yl)acetamide]	123%	53 nM	>100 µM	
Fe(III)-TMPyP [reference compound]				effect on Aβ-induced Fyn phosphorylation (Fyn kinase): prevented; effect on Aβ-induced decrease of post-synaptic markers (GluN2A, GluN2B, GluA1, GluA2, PSD-95) [2]: rescued; EAE clinical score / disease severity [3]: ameliorate EAE severity; affinity for PrPC, previously reported [4]: high
CCC(CC)NC(=O)CN1c2ccc(C(F)(F)F)cc2-c2ccc(F)cc2S1(=O)=O [SM884, N-(1-Ethylpropyl)-2-[3-fluoro-5,5-dioxido-9-(trifluoromethyl)-6H-dibenzo[c,e][1,2]thiazin-6-yl]acetamide]	211%	18 nM	>100 µM	rescue of long-term potentiation (LTP) (M1000 prion strain; 0.03 μM): 71%; rescue of long-term potentiation (LTP) (M1000 prion strain; 0.1 μM): 34%
O=C(CN1c2ccc(C(F)(F)F)cc2-c2ccc(F)cc2S1(=O)=O)NC(CCO)CCO [SM888, 2-[3-Fluoro-5,5-dioxido-9-(trifluoromethyl)-6H-dibenzo[c,e][1,2]thiazin-6-yl]-N-[3-hydroxy-1-(2-hydroxyethyl)propyl]acetamide]				Emax at 1 µM [1]: ~50%; antigen-specific CD4+ T cell proliferation after cDC2 treatment (cDC2): suppress antigen-specific CD4+ T cell proliferation
O=C(CN1c2ccc(C(F)(F)F)cc2-c2ccc(F)cc2S1(=O)=O)NC1CCCCC1 [SM882, N-cyclohexyl-2-(3-fluoro-5,5-dioxido-9-(trifluoromethyl)-6H-dibenzo[c,e][1,2]thiazin-6-yl)acetamide]	139%	44 nM	>100 µM	
O=C(CN1c2ccc(C(F)(F)F)cc2-c2ccccc2S1(=O)=O)NC(CCO)CCO [SM887, 2-[5,5-dioxido-9-(trifluoromethyl)-6H-dibenzo[c,e][1,2]thiazin-6-yl]-N-[3-hydroxy-1-(2-hydroxyethyl)propyl]acetamide]				Emax at 1 µM [1]: ~50%; antigen-specific CD4+ T cell proliferation after cDC2 treatment (cDC2): significantly affected
CCOc1ccc2c(c1)S(=O)(=O)N(CC(=O)NC1CCCCC1)c1ccc(C(F)(F)F)cc1-2 [SM883, N-cyclohexyl-2-(3-ethoxy-5,5-dioxido-9-(trifluoromethyl)-6H-dibenzo[c,e][1,2]thiazin-6-yl)acetamide]	166%	14 nM	>100 µM	
O=C(CN1c2cc(Br)ccc2-c2ccccc2S1(=O)=O)NC1CCCCC1 [SM228, 2-(8-Bromo-5,5-dioxido-6H-dibenzo[c,e][1,2]thiazin-6-yl)-N-cyclohexylacetamide]	123%	210 nM	37.46 µM	
O=C(CN1c2ccc(C(F)(F)F)cc2-c2ccc(F)cc2S1(=O)=O)NN1CCOCC1 [SM881, 2-[3-Fluoro-5,5-dioxido-9-(trifluoromethyl)-6H-dibenzo[c,e][1,2]thiazin-6-yl]-N-morpholin-4-ylacetamide]	150%	32 nM	>100 µM	
O=C(CN1c2cccc(Br)c2-c2ccccc2S1(=O)=O)NC1CCCCC1 [SM229, 2-(10-bromo-5,5-dioxido-6H-dibenzo[c,e][1,2]thiazin-6-yl)-N-cyclohexylacetamide]	121%	250 nM	28.21 µM	
O=C(CN1c2ccc(C(F)(F)F)cc2-c2ccccc2S1(=O)=O)NC1CCCCC1 [SM231, N-cyclohexyl-2-[5,5-dioxido-9-(trifluoromethyl)-6H-dibenzo[c,e][1,2]thiazin-6-yl]acetamide]	140%	140 nM	22.4 µM	effect on Aβ-induced Fyn phosphorylation (Fyn kinase): completely abrogated Aβ effects; effect on Aβ-induced decrease of post-synaptic markers (GluN2A, GluN2B, GluA1, GluA2, PSD-95) [2]: significantly rescued the levels of all the post-synaptic markers; binding to recombinant PrPC by DMR [5]: no interaction was observed; total PrPC expression (PrPC [6]): no difference in PrPC expression was found; PrPC level in DC1 and DC2 (PrPC [7]): slightly increases; expansion of FoxP3+ LAP+ Treg cells by treated DC2 (DC2): favor the expansion of T cells expressing Treg cell markers FoxP3 and LAP; EAE clinical score / disease severity [3]: reduced disease as compared to control mice; secretion of IL-17A and GM-CSF by CD4+ T cells from cervical lymph nodes re-stimulated with MOG [3]: reduced secretion of inflammatory cytokines; white matter demyelination and inflammatory infiltrates [3]: reduced; FXR transcriptional activity (FXR, Nr0b2 mRNA) (FXR): promoted significant FXR transcriptional activity; half-life (in vitro): 25 min
